Measured values taken from patent publication US9732085B2, “Pyridinone and pyrimidinone derivatives as factor Xia” (ONO PHARMACEUTICAL CO., LTD., priority 2011, dated 2017).
Structures can show the parent of a compound that is named as a salt. Where two headings read alike, the source gives them in different places.

Tests used:
[1] = molecular target: Human Factor XIa (Homo sapiens (Human), UniProt P03951); experiment: Factor XIa enzyme activity (chromogenic substrate S-2366); type: biochemical; conditions: read-out: In vitro FXIa inhibitory activity IC50
Chain of Human Factor XIa (P03951 388-625): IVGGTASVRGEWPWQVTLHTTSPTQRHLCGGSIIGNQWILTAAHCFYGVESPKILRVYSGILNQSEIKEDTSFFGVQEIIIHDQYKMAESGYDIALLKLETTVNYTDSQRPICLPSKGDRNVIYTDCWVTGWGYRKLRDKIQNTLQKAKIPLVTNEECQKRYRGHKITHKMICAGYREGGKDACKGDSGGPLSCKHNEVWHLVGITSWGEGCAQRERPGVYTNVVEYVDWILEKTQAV
Chain of Human Factor XIa (P03951 19-387 partner): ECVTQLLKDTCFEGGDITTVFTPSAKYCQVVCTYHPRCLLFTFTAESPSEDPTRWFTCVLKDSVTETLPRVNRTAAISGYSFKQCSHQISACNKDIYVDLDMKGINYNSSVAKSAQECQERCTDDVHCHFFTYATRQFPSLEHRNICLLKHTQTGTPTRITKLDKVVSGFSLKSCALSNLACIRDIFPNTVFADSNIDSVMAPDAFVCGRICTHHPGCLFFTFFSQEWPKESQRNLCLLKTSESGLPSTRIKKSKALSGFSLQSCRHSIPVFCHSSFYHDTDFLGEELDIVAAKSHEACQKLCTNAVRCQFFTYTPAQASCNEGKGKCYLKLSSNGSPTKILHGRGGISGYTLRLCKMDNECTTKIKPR
Procedure: Inhibitory activities of compounds of the present invention against factor XIa, Xa, XIIa, IXa, VIIa, plasma kallikrein or thrombin were evaluated using appropriate purified proteases and synthetic substrates. The rate of hydrolysis of the chromogenic substrate by the relevant protease was continuously measured at 405 nm.
Inhibitory activity against each enzyme was calculated as % inhibition using the equation described below. % Inhibition=[[(rate without compound)−(rate with compound)](rate without compound)]×100%. Each half maximal inhibitory concentration (IC50) value was determined by plotting the concentration of compound of the invention against the % inhibition. (1-1) Factor XIa Enzyme Activity
Human Factor XIa (Haematologic Technologies Inc.) activity was measured at an enzyme concentration of 0.1 U/mL in 150 mM NaCl, 5 mM KCl, 1 mg/mL PEG6000, 50 mM HEPES-NaOH (pH7.4) with 300 μM S-2366 (pyroGlu-Pro-Arg-pNA, Chromogenix).

[2] = Rat oral administration test (plasma concentration via FXIa inhibitory activity); type: in vivo; conditions: fasted male Crj:CD(SD)IGS rats, single 3 mg/kg p.o., 20% wellsolve, read-out: rat plasma concentration after po administration Cmax at 3 mpk
Procedure: Each compound of the present invention in a solution of 20% wellsolve (celeste) was given to fasted male Crj:CD(SD)IGS rats as a single 3 mg/kg, p.o. dose by gavage. Blood samples were drawn from jugular vein into syringes containing 3.2% sodium citrate (the volume ratio of blood to anticoagulant=9:1) after oral administration at 0.5, 1, 2, 4 and 6 hours. Plasma was harvested by centrifugation and stored at −20° C. until measurement of plasma concentration.
To measure plasma concentrations of the compounds of the present invention, plasma samples were deproteinized with acetonitrile, followed by evaporation of the acetonitrile to dryness. The residual was then re-dissolved with DMSO and its FXIa inhibitory activity was measured by enzyme assay described above. Plasma concentrations of each compound of the present invention were quantitated by generating a standard curve of known compound concentration in rat plasma.

[3] = Pharmacokinetic (PK) study of the compound which has an ester group(s) in rat; type: in vivo; conditions: plasma, po, fasted male Crj:CD(SD) rats, single 3 mg/kg p.o., analyte: administered ester compound, read-out: rat plasma concentration of ester compound after po administration Cmax at 3mpk
Procedure: Each compound of the present invention in a solution of 20% wellsolve (celeste) was given to fasted male Crj:CD(SD) rats as a single 3 mg/kg, p.o. dose by gavage. Blood samples were drawn from jugular vein into syringes treated with heparin-diisopropyl fluorophosphate mixture (500:1) at 0.5, 1, 3, 7 hours after oral administration. Plasma was obtained by centrifugation and stored at −20° C. until measurement of plasma concentration.
To measure plasma concentrations of the compounds of the present invention, plasma samples were deproteinized with acetonitrile, followed by evaporation of the acetonitrile to dryness. Then the sample was reconstituted in the mobile phase and analyzed by LC/MS/MS. An analytical column (Shim-pack XR-ODS II, 2.0 mm×75 mm, 2.2 μm) and mobile phase (0.1% formic acid in water and 0.1% formic acid in acetonitrile, flow rate of 0.5 mL/min) were used. The system was used in multiple reaction monitoring (MRM) mode with positive ion detection.

[4] = Table 2, comparison with comparative compounds
[5] = human Factor XIa 0.1 U/mL, 300 μM S-2366, pH7.4

| SMILES | IC50 [1, 5] [nM] | further results |
| --- | --- | --- |
| COC(=O)Nc1ccc(-c2[nH]c([C@H](Cc3ccccc3)NC(=O)CCc3cc(Cl)ccc3-n3cnnn3)nc2Cl)cc1 [Comp Ex 1, reference compound] | – | IC50 [1, 4]: 3.6 nM; Cmax [2]: 15 nM |
| COC(=O)Nc1ccc(-c2[nH]c([C@H](C)NC(=O)/C=C/c3cc(Cl)ccc3-n3cnnn3)nc2Cl)cc1 [Comp Ex 2, reference compound] | – | Cmax [2]: 25 nM |
| COC(=O)Nc1ccc(-c2[nH]c(CNC(=O)/C=C/c3cc(Cl)ccc3-n3cnnn3)nc2Cl)cc1 [Comp Ex 3, reference compound] | – | Cmax [2]: 88 nM |
| COC(=O)Nc1ccc(-c2cnc(C3CCc4nc(-c5cc(Cl)ccc5-n5cnnn5)cc(=O)n43)[nH]2)cc1 (stereo not shown) [Example 41, methyl[4-(2-{2-[5-chloro-2-(1H-tetrazol-1-yl)phenyl]-4-oxo-4,6,7,8-tetrahydropyrrolo[1,2-a]pyrimidin-6-yl}-1H-imidazol-5-yl)phenyl]carbamate] | 6.5 | IC50 [1, 4]: 6.5 nM; Cmax [2]: 2280 nM |
| COC(=O)Nc1ccc(-c2[nH]c(Cn3ccc(-c4cc(Cl)ccc4-n4cnnn4)cc3=O)nc2Cl)cc1 [Example 57, methyl{4-[5-chloro-2-({4-[5-chloro-2-(1H-tetrazol-1-yl)phenyl]-2-oxo-1(2H)-pyridinyl}methyl)-1H-imidazol-4-yl]phenyl}carbamate] | 2.4 | IC50 [1, 4]: 2.4 nM; Cmax [2]: 510 nM |
| O=C(O)c1ccc(-c2cnc([C@@H]3CCc4c(Cl)c(-c5cc(Cl)ccc5-n5cnnn5)cc(=O)n43)[nH]2)s1 [Example 387, 5-(2-{(3S)-8-chloro-7-[5-chloro-2-(1H-tetrazol-1-yl)phenyl]-5-oxo-1,2,3,5-tetrahydro-3-indolizinyl}-1H-imidazol-5-yl)-2-thiophenecarboxylic acid hydrochloride] | 1.6 | – |
| O=C(O)c1cc(-c2cnc([C@@H]3CCc4c(Cl)c(-c5cc(Cl)ccc5-n5cnnn5)cc(=O)n43)[nH]2)cs1 [Example 391, 4-(2-{(3S)-8-chloro-7-[5-chloro-2-(1H-tetrazol-1-yl)phenyl]-5-oxo-1,2,3,5-tetrahydro-3-indolizinyl}-1H-imidazol-5-yl)-2-thiophenecarboxylic acid trifluoroacetate] | 1.1 | – |
| O=C(O)c1cc(-c2cnc([C@@H]3CCc4nc(-c5cc(Cl)ccc5-n5cnnn5)cc(=O)n43)[nH]2)cs1 [Example 392, 4-(2-{(6S)-2-[5-chloro-2-(1H-tetrazol-1-yl)phenyl]-4-oxo-4,6,7,8-tetrahydropyrrolo[1,2-a]pyrimidin-6-yl}-1H-imidazol-5-yl)-2-thiophenecarboxylic acid hydrochloride] | 2.1 | – |
| O=C(O)c1ccc(-c2[nH]c([C@@H]3CCc4cc(-c5cc(Cl)ccc5-n5cnnn5)cc(=O)n43)nc2F)s1 [Example 399, 5-(2-{(3S)-7-[5-chloro-2-(1H-tetrazol-1-yl)phenyl]-5-oxo-1,2,3,5-tetrahydro-3-indolizinyl}-4-fluoro-1H-imidazol-5-yl)-2-thiophenecarboxylic acid trifluoroacetate] | 1.1 | – |
| CCOC(=O)c1ccc(-c2cnc([C@@H]3CCc4cc(-c5cc(Cl)ccc5-n5cnnn5)cc(=O)n43)[nH]2)s1 [Example 401, ethyl 5-(2-{(3S)-7-[5-chloro-2-(1H-tetrazol-1-yl)phenyl]-5-oxo-1,2,3,5-tetrahydro-3-indolizinyl}-1H-imidazol-5-yl)-2-thiophenecarboxylate] | – | Cmax [3]: 960 nM |
| O=C(O)c1cc(-c2nc(F)c(C3CCc4cc(-c5cc(Cl)ccc5-n5cnnn5)cc(=O)n43)[nH]2)cs1 (stereo not shown) [Example 848, 4-(5-{7-[5-chloro-2-(1H-tetrazol-1-yl)phenyl]-5-oxo-1,2,3,5-tetrahydro-3-indolizinyl}-4-fluoro-1H-imidazol-2-yl)-2-thiophenecarboxylic acid] | 1.7 | – |

The next lines start with results.

| IC50 [1, 5] [nM] | SMILES | further results |
| --- | --- | --- |
| 15 | COC(=O)Nc1ccc(-c2[nH]c(C3CCc4cc(-c5cc(Cl)ccc5-n5cnnn5)cc(=O)n43)nc2Cl)cc1 (stereo not shown) [Example 45, methyl[4-(4-chloro-2-{7-[5-chloro-2-(1H-tetrazol-1-yl)phenyl]-5-oxo-1,2,3,5-tetrahydro-3-indolizinyl}-1H-imidazol-5-yl)phenyl]carbamate] | IC50 [1, 4]: 15 nM; Cmax [2]: 1250 nM |
| 6.1 | COCCC(c1nc(Cl)c(-c2ccc(NC(=O)OC)cc2)[nH]1)n1ccc(-c2cc(Cl)ccc2-n2cnnn2)cc1=O (stereo not shown) [Example 264, methyl{4-[4-chloro-2-(1-{4-[5-chloro-2-(1H-tetrazol-1-yl)phenyl]-2-oxo-1(2H)-pyridinyl]-3-methoxypropyl)-1H-imidazol-5-yl}phenyl}carbamate] | – |
| 11 | COC(=O)Nc1ccc(-c2cnc([C@@H]3CSc4cc(-c5cc(Cl)ccc5-n5cnnn5)cc(=O)n43)[nH]2)cc1 [Example 270, methyl[4-(2-{(3R)-7-[5-chloro-2-(1H-tetrazol-1-yl)phenyl]-5-oxo-2,3-dihydro-5H-[1,3]thiazolo[3,2-a]pyridin-3-yl}-1H-imidazol-5-yl)phenyl]carbamate] | – |
| 5.7 | COC(=O)Nc1ccc(-c2cnc(C(Cc3cccnc3)n3ccc(-c4cc(Cl)ccc4-n4cnnn4)cc3=O)[nH]2)cc1 (stereo not shown) [Example 278, methyl(4-{2-[1-{4-[5-chloro-2-(1H-tetrazol-1-yl)phenyl]-2-oxo-1(2H)-pyridinyl}-2-(3-pyridinyl)ethyl]-1H-imidazol-5-yl}phenyl)carbamate] | – |
| 2.5 | COC(=O)Nc1ccc(-c2cnc([C@@H]3CCc4cc(-c5cc(Cl)ccc5-n5cc(C#N)nn5)cc(=O)n43)[nH]2)cc1 [Example 290, methyl[4-(2-{(3S)-7-[5-chloro-2-(4-cyano-1H-1,2,3-triazol-1-yl)phenyl]-5-oxo-1,2,3,5-tetrahydro-3-indolizinyl}-1H-imidazol-5-yl)phenyl]carbamate] | – |
| 8.3 | COC(=O)Nc1ccc(-c2cnc([C@@H]3CCc4cc(-c5cc(C)ccc5-n5cnnn5)cc(=O)n43)[nH]2)cc1 [Example 309, methyl[4-(2-{(3S)-7-[5-methyl-2-(1H-tetrazol-1-yl)phenyl]-5-oxo-1,2,3,5-tetrahydro-3-indolizinyl}-1H-imidazol-5-yl)phenyl]carbamate] | – |
| 4.2 | O=C(O)c1ccc(-c2cnc([C@@H]3CCc4cc(-c5cc(Cl)ccc5-n5cnnn5)cc(=O)n43)[nH]2)s1 [Example 347, 5-(2-{(3S)-7-[5-chloro-2-(1H-tetrazol-1-yl)phenyl]-5-oxo-1,2,3,5-tetrahydro-3-indolizinyl}-1H-imidazol-5-yl)-2-thiophenecarboxylic acid] | – |
| 1.4 | O=C(O)c1cc(-c2cnc([C@@H]3CCc4cc(-c5cc(Cl)ccc5-n5cnnn5)cc(=O)n43)[nH]2)cs1 [Example 363, 4-(2-{(3S)-7-[5-chloro-2-(1H-tetrazol-1-yl)phenyl]-5-oxo-1,2,3,5-tetrahydro-3-indolizinyl}-1H-imidazol-5-yl)-2-thiophenecarboxylic acid hydrochloride] | – |
| 13 | Cc1cc(-c2cc(Cl)ccc2-n2cnnn2)cc(=O)n1Cc1ncc(-c2csc(C(=O)O)c2)[nH]1 [Example 400, 4-[2-({4-[5-chloro-2-(1H-tetrazol-1-yl)phenyl]-6-methyl-2-oxo-1(2H)-pyridinyl}methyl)-1H-imidazol-5-yl]-2-thiophenecarboxylic acid hydrochloride] | – |
| 1.6 | O=C(O)c1scc(-c2cnc([C@@H]3CCc4cc(-c5cc(Cl)ccc5-n5cnnn5)cc(=O)n43)[nH]2)c1F [Example 834, 4-(2-{(3S)-7-[5-chloro-2-(1H-tetrazol-1-yl)phenyl]-5-oxo-1,2,3,5-tetrahydro-3-indolizinyl}-1H-imidazol-5-yl)-3-fluoro-2-thiophenecarboxylic acid] | – |
